Measured values from patent US8067422B2, “Crystal form of phenylamino pyrimidine derivatives” (Natco Pharma Limited, priority 2008, dated 2011).

Columns and labels:
[1] = tested on: Baf3 murine leukemia cells (T315I); assay: Blast cell count in nude mice implanted with Baf3 T315I cells; type: in vivo; settings: Baf3T315I; Imatinib 10 mg/kg, AN019 20 mg/kg, AN024 20 mg/kg, oral gavage or ip; day 42
Excerpt: (§1) Blood smears were obtained via the tail vein or via the femoral vein every 6th day and blast cells counted and graphically represented.
(§2) Abdominal swelling and decrease in activity was monitored daily, blood smear taken via the tail vein or the femoral vein every 6th day and H&E stained as per standard protocols. 42 days after implantation, mice were sacrificed and spleens harvested.
(§3) Nude mice were intraperitoneally implanted with Baf3 mutant cells (wt, T315I, M351T or E255K). […] Blood was drawn from the femoral vein or tail vein every 6th day and blast cell count determined and graphically represented.

[2] = tested on: Baf3 murine leukemia cells (M351T); assay: Blast cell count in nude mice implanted with Baf3 M351T cells; type: in vivo; settings: Baf3M351T; Imatinib 10 mg/kg, AN019 20 mg/kg, AN024 20 mg/kg, oral gavage or ip; day 42
Excerpt: as §1, §2, §3

[3] = tested on: Baf3 murine leukemia cells (E255K); assay: Blast cell count in nude mice implanted with Baf3 E255K cells; type: in vivo; settings: Baf3 E225K (E255K); Imatinib 10 mg/kg, AN019 20 mg/kg, AN024 20 mg/kg, oral gavage or ip; day 42
Excerpt: as §1, §2, §3

[4] = tested on: ZR71 breast cancer cells; assay: Matrigel invasion assay (modified Boyden chamber), ZR-71; type: cell-based; settings: ZR-71
Method: (§4) The in vitro invasiveness of 4910, 5310 and U87 glioma cells and MDAMB231 and ZR71 breast cancer cells in the presence of specified concentrations of compounds were assessed using a modified Boyden chamber assay. Cells were treated with these compounds for 48 h. 1×10^6 cells were suspended in 600 μl of serum-free medium supplemented with 0.2% BSA and placed in the upper compartment of the transwell chambers (Corning Costar Fischer Scientific Cat #07-200-158, Pittsburgh Pa.) coated with Matrigel (0.7 mg/ml). The lower compartment of the chamber was filled with 200 μl of serum medium and the cells were allowed to migrate for 24 h. After incubation, the cells were fixed and stained with Hema-3 and quantified as previously described (Mohanam et al. 1993). The migrated cells were imaged microscopically to determine the reduction in invasiveness induced by the compounds of this invention.

[5] = tested on: MDAMB231 breast cancer cells; assay: Matrigel invasion assay (modified Boyden chamber), MDA-MB-231; type: cell-based; settings: MDA-MB-231
Method: as §4

[6] = tested on: 4910 glioma cells; assay: Matrigel invasion assay (modified Boyden chamber), 4910; type: cell-based, human; settings: 4910
Method: as §4

[7] = tested on: 5310 glioma cells; assay: Matrigel invasion assay (modified Boyden chamber), 5310; type: cell-based; settings: 5310
Method: as §4

[8] = tested on: U87 glioma cells; assay: Matrigel invasion assay (modified Boyden chamber), U87; type: cell-based; settings: U87
Method: as §4

[9] = tested on: ZR71 breast cancer cells; assay: In vitro angiogenic assay, ZR-71 conditioned media on human dermal endothelial cells; type: cell-based; settings: ZR-71 cells; radiation not distinguished
Method: (§5) The in vitro angiogenesis of 4910, 5310 and U87 glioma cells and MDAMB231 and ZR71 breast cancer cells in the presence of specified concentrations of compounds were determined as follows, cells (2×10^4/well) were seeded in 8-well chamber slides and were treated with various concentrations of test compounds. After a 24 h incubation period, the conditioned media was removed and added to a 4×10^4 human dermal endothelial cell (monolayer in 8-well chamber slides) and the human dermal endothelial cells were allowed to grow for 72 h. Cells were then fixed in 3.7% formaldehyde and stained with H&E and photographed.

[10] = tested on: MDAMB231 breast cancer cells; assay: In vitro angiogenic assay, MDA-MB-231 conditioned media on human dermal endothelial cells; type: cell-based; settings: MDA-MB-231 cells
Method: as §5

[11] = tested on: 4910 glioma cells; assay: In vitro angiogenic assay, 4910 conditioned media on human dermal endothelial cells; type: cell-based; settings: 4910 cells
Method: as §5

[12] = tested on: 5310 glioma cells; assay: In vitro angiogenic assay, 5310 conditioned media on human dermal endothelial cells; type: cell-based; settings: 5310 cells
Method: as §5

[13] = tested on: U87 glioma cells; assay: In vitro angiogenic assay, U87 conditioned media on human dermal endothelial cells; type: cell-based
Method: as §5

[14] = tested on: AKT, ERK and Pi3k in U87 glioma cells; assay: Western blot analysis, U87; type: cell-based
Method: (§6) Western blot analysis of 4910, 5310 and U87 glioma cells and MDAMB231 and ZR71 breast cancer cells in the presence of specified concentrations of compounds were assessed as per standard protocols. Cells were treated with AN019, AN024 or Temozolomide at the specified concentrations. 24 h after treatment, cells were collected and cell lysates extracted. Equal quantities of proteins were fractionated by SDS-PAGE. The fractionated proteins were blotted on to nylon membranes and immunoprobed for AKT, ERK and Pi3k. Breast cancer cell protein isolates were additionally immunoprobed for EGFR, ErbB1, ErbB2 and ErbB3.

[15] = tested on: AKT, ERK and Pi3k in 4910 glioma cells; assay: Western blot analysis, 4910; type: cell-based, human
Method: as §6

[16] = tested on: AKT, ERK and Pi3k in ZR71 breast cancer cells; assay: Western blot analysis, ZR71; type: cell-based
Method: as §6

[17] = tested on: K562 luciferase expressing cells; assay: Leukemic survival study in nude mice implanted with K562 luciferase expressing cells; type: in vivo
Excerpt: K562 luciferase expressing cells were implanted intraperitoneally into nude mice; the mice were scanned using the xenogeny IVIS image station after ip injections of luciferin does determine implantations. Drug treatment was started as in previous studies day 15 after implantation. The animals were given treatment till day 42, after which drug treatment was stopped and survival of the animals determined as per the animal care regulations. […] Drug treatment was withdrawn on day 42 post implantation and survival of animals determined.

[18] = tested on: 4910 human glioma xenograft cells; assay: Glioma radiation study, nude mice intracranially implanted with 4910 cells; type: in vivo
Method: Nude mice were intracranially implanted with 4910 human glioma xenograft cells (1×10^6 cells). Ten days after implantation mice were treated with AN019, AN024 or temozolomide with or without radiation (5 Gy/week). The experiment was terminated at day 40 post implantation.

[19] = not given; remark: listed apart in the source
[20] = tested on: K562; assay: ED50 (po) in leukemic mice (K562); settings: po, mice

Cc1ccc(NC(=O)c2cccc(S(=O)(=O)C(F)(F)F)c2)cc1Nc1nccc(-c2cccnc2)n1 [AN024]
Blast cell count in blood smears [1]: significant decrease in blast cell count
Blast cell count in blood smears [2]: significant decrease in blast cell count
Blast cell count in blood smears [3]: significant decrease in blast cell count
±Change in invasion after radiation [4]: −3%
±Change in invasion after radiation [5]: +4%
±Change in invasion after radiation [6]: −17%
±Change in invasion after radiation [7]: +5%
±Change in invasion after radiation [8]: −24%
Inhibition of angiogenesis [9]: complete inhibition of angiogenesis
Inhibition of angiogenesis ([10]; after radiation): only a slight inhibition
Inhibition of angiogenesis ([10]; control condition (without radiation)): only a slight inhibition
Inhibition of angiogenesis ([11]; after radiation): significant inhibition of angiogenesis
Inhibition of angiogenesis ([11]; without radiation): significant inhibition of angiogenesis
Inhibition of angiogenesis ([12]; after radiation): angiogenesis further inhibited
Inhibition of angiogenesis ([12]; control conditions (without radiation)): inhibition of angiogenesis
Inhibition of angiogenesis ([13]; after radiation): increase in inhibition
Inhibition of angiogenesis ([13]; without radiation): significant retardation in angiogenesis
ERK levels (Western blot) ([14]; U87, after radiation): decrease was enhanced
ERK levels (Western blot) ([14]; U87, without radiation): slight decrease in ERK levels
AKT levels (Western blot) ([15]; 4910, after radiation): decrease in AKT levels was enhanced
AKT levels (Western blot) ([15]; 4910, without radiation): decrease in AKT levels
AKT levels (Western blot) ([16]; ZR71, after radiation): decrease in AKT expression
AKT levels (Western blot) ([16]; ZR71, unirradiated): did not show any significant change
PI3k levels (Western blot) ([16]; ZR71, with radiation): decrease in PI3k levels
Blast cell count from blood smears, effectiveness after withdrawal of drug treatment ([17]; drug treatment withdrawn on day 42): showed effectiveness after withdrawal of drug treatment
Animals showing no signs of leukemia / complete absence of leukemic symptoms ([17]; of 10 animals, drug withdrawn day 42, AN024 on day 55): 8 animals
Mortality ([17]; treatment day 15 to day 42, then withdrawn, 10 animals): mortality on day 38
Animals cured / no observable intracranial tumor ([18]; of 10 animals, with radiation (5 Gy/week), day 40 post implantation): 7 animals
Animals cured / complete absence of intracranial tumours ([18]; of 10 animals, without radiation, day 40 post implantation): 3 animals
Intracranial tumour size and appearance ([18]; with radiation (5 Gy/week)): well defined surgically respectable tumours
Intracranial tumour size and appearance ([18]; without radiation): tumours were well defined and not showing diffuse edges
LD50 (po) Mice: 1440 mg/kg
MTD Mice [19]: 500 mg/kg
ED50 (po) Mice [20]: 10 mg/kg
